The text below walks through data of patent US5229131A, “Pulsatile drug delivery system” (priority 1991, dated 1993).

For data set [1] the following is noted: cited from earlier work.
A further data set can be described thus: in vivo. Conditions: dog, iv. As to the method: Single IV doses were given to each of a group of four beagle dogs: 5 mg of propranolol free base was dissolved in 3 ml sterile sodium chloride solution USP. The solution was infused over a 20 second period through an in-line millipore filter. Blood samples (1 ml) were withdrawn at desired intervals postinfusion. The IV results are shown as a " ." Similarly, blood plasma samples were withdrawn and analyzed for oral administration of 80 mg propranolol in immediate release form (" ") and the polymer coated dosage delivery form of section A. above ("+").
DDT is indicated by the release of citric acid from the drug-containing core which causes a spike in the pH time profile. The pH will remain depressed for the duration of the dissolution of the citric acid.
Blood samples (1 ml) were withdrawn at 5, 10, 15, 20, 30, 40, 50, 60, 70, 80, 90, 105, 120, 150, 180, 240, 300, 360 and 420 minutes after dosing for the immediate release dosage form. For the polymer coated tablets, the sampling schedule began at the time of coating dissolution (CDT). After dissolution, blood samples (1 ml) were withdrawn at 5, 15, 30, 45, 60, 90, 120, 190, 240, 300, 360 and 420 minutes.

The conditions of data set [2]: in man; cited from earlier work.
For data set [3] the following is noted: saturated solution; cited from earlier work.
Where [4] appears, read: list of drugs with nonlinear kinetics.

Counter-ions that a name gives are not always drawn. Like-named read-outs stand apart in the source and are kept apart here.

As for `C[C@H]1C[C@@H]2[C@H]([C@@H](O)C[C@@]3(C)[C@H]2CC[C@]3(O)C(=O)CO)[C@@]2(C)C=CC(=O)C=C12` [Methylprednisolone], the F in data set [1] (setting [4]) is recorded as 0.85. Regarding `C#C[C@]1(O)CC[C@H]2[C@@H]3CCC4=CC(=O)CC[C@@H]4[C@H]3CC[C@@]21C` [Norethindrone], in data set [1] (setting [4]), the F is 0.65.

Take `C#C[C@]1(O)CC[C@H]2[C@@H]3CCc4cc(O)ccc4[C@H]3CC[C@@]21C` [Ethinylestradiol]: the F in data set [1] (setting [4]) is on record as 0.4. `CN/C(=N/CCSCc1nc[nH]c1C)NC#N` [Cimetidine]: the F in data set [1] (setting [4]) was 0.7. As to `CC(C)C[C@H]1C(=O)N2CCC[C@H]2[C@]2(O)O[C@](NC(=O)[C@@H]3C=C4c5cccc6[nH]c(Br)c(c56)C[C@H]4N(C)C3)(C(C)C)C(=O)N12` [Bromocriptine Mesylate], in data set [1] (setting [4]), the F is 0.6. For orientation: half-life means the time in which the quantity being followed falls by half. Lower therefore signals rapid decline. Take `CC(C)NCC(O)COc1cccc2ccccc12` (stereo not shown) [propranolol]: the half-life is 1.97 h in the data set “in vivo” (half-life) and about 2 h in the data set “in vivo” (terminal phase half-life). For the same compound, the biological half-life result in data set [2] is “two to six”.

Consider `[Cl-].[Na+]` [sodium chloride], for which the osmotic pressure in data set [3] is recorded as 5250 psi.

Regarding `C[C@]12C=CC(=O)C=C1CC[C@@H]1[C@@H]2C(=O)C[C@@]2(C)[C@H]1CC[C@]2(O)C(=O)CO` [Prednisone], the F in data set [1] (in vivo) is listed as 0.85.
